Measured values taken from patent US9028845B2, “Chimeric immunomodulatory compounds and methods of using the same-IV” (Dynavax Technologies Corporation, priority 2001, dated 2015).

Test system: human PBMCs
Test: Human PBMC cytokine response assay (IFN-γ and IFN-α in cell-free medium by ELISA), with or without cPLGA;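 as to IFN-α (pg/ml) mean: 20 µg/mL compound for 24 hours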;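 as to IFN-γ (pg/ml) mean: 20 µg/mL compound for 24 hours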
Format: cell-based
[1] = Table 24, mean of donors 28234-28237
[2] = Table 25, mean of donors 28250-28253
[3] = donor 28066, 20 ug/ml, 24 h, + PLGA = premixed with 100 μg/ml cPLGA
[4] = donor 28067, 20 ug/ml, 24 h, + PLGA = premixed with 100 μg/ml cPLGA
[5] = donor 28068, 20 ug/ml, 24 h, + PLGA = premixed with 100 μg/ml cPLGA
[6] = mean of Donors 1-2, 20 μg/ml, 24 h
[7] = mean of Donors 3-4, 20 μg/ml, 24 h
[8] = mean of Donors 5-6, 20 μg/ml (mixtures: 20 μg/ml total), 24 h
[9] = mean of Donors 7-8, 20 μg/ml, 24 h
[10] = mean of Donors 9-12, 20 μg/ml, 24 h
[11] = mean of donors 110, 112, 119, 120, Table 14
[12] = mean of donors 28057-28060, Table 16
[13] = mean of donors 28065-28068, 20 ug/ml, 24 h, + PLGA = premixed with 100 μg/ml cPLGA
[14] = mean of donors 28185-28188, Table 15
[15] = mean of donors 28218-28221, 20 μg/ml, 24 h

“5′-TGACTGTGAACGTTCGAGATGA-3′ (SEQ ID NO: 2) [Compound P-6, reference compound]” showed an IFN-α (Table 13, donor 28158) of 7 pg/mL, an IFN-γ (Table 13, donor 28158) of 207 pg/mL and an IFN-α (Table 13, donor 28159) of 32 pg/mL. It also gave an IFN-γ (Table 13, donor 28159) of 231 pg/mL, an IFN-α mean (Table 13, mean of donors) of 144 pg/mL and an IFN-γ mean (Table 13, mean of donors) of 611 pg/mL. The IFN-α (Table 24, donor 28234) was 58 pg/mL, the IFN-γ (Table 24, donor 28234) was 15 pg/mL and the IFN-α (Table 24, donor 28235) was 16 pg/mL. For the same substance, the IFN-γ (Table 24, donor 28235) was 52 pg/mL, the IFN-α (Table 24, donor 28236) was 16 pg/mL and the IFN-γ (Table 24, donor 28236) was 51 pg/mL. The IFN-α (Table 24, donor 28237) was 74 pg/mL, the IFN-γ (Table 24, donor 28237) was 1167 pg/mL and the IFN-α mean [1] was 41 pg/mL. For the same substance, the IFN-γ mean [1] was 321 pg/mL, the IFN-a (Table 25, donor 28250) was 16 pg/mL and the IFN-a (Table 25, donor 28251) was 16 pg/mL. The IFN-g (Table 25, donor 28251) was 18 pg/mL, the IFN-a (Table 25, donor 28252) was 16 pg/mL and the IFN-g (Table 25, donor 28252) was 34 pg/mL. For the same substance, the IFN-a (Table 25, donor 28253) was 16 pg/mL, the IFN-g (Table 25, donor 28253) was 37 pg/mL and the IFN-a mean [2] was 16 pg/mL. The IFN-g mean [2] was 52 pg/mL, the “IFN-α” value (donor 110, Table 14) was 50 pg/mL and the “IFN-γ” value (donor 110, Table 14) was 1508 pg/mL. The “IFN-α” value (donor 112, Table 14) was 172 pg/mL, the “IFN-γ” value (donor 112, Table 14) was 344 pg/mL and the “IFN-α” value (donor 119, Table 14) was 234 pg/mL. For the same substance, the “IFN-γ” value (donor 119, Table 14) was 144 pg/mL, the “IFN-α” value (donor 120, Table 14) was 72 pg/mL and the “IFN-γ” value (donor 120, Table 14) was 104 pg/mL. The “IFN-α” value (donor 28057, Table 16) was 621 pg/mL, the “IFN-γ” value (donor 28057, Table 16) was 83 pg/mL and the “IFN-α” value (donor 28058, Table 16) was 396 pg/mL. The “IFN-γ” value (donor 28058, Table 16) was 103 pg/mL, the “IFN-α” value (donor 28059, Table 16) was 145 pg/mL and the “IFN-γ” value (donor 28059, Table 16) was 1230 pg/mL. For the same substance, the “IFN-α” value (donor 28060, Table 16) was 123 pg/mL, the “IFN-γ” value (donor 28060, Table 16) was 85 pg/mL and the “IFN-γ (pg/ml) 28065” value (donor 28065 (high background), 20 ug/ml, 24 h, + PLGA = premixed with 100 μg/ml cPLGA, 1000 = outside assay limits) was 439 pg/mL. For the same substance, the “IFN-α (pg/ml) 28065” value (donor 28065, 20 ug/ml, 24 h, + PLGA = premixed with 100 μg/ml cPLGA) was 14 pg/mL, the “IFN-α (pg/ml) 28066” value [3] was 17 pg/mL and the “IFN-γ (pg/ml) 28066” value [3] was 12 pg/mL. The “IFN-α (pg/ml) 28067” value [4] was 45 pg/mL, the “IFN-γ (pg/ml) 28067” value [4] was 28 pg/mL and the “IFN-α (pg/ml) 28068” value [5] was 126 pg/mL. The “IFN-γ (pg/ml) 28068” value [5] was 906 pg/mL, the “IFN-a” value (donor 28185, Table 15) was 120 pg/mL and the “IFN-g” value (donor 28185, Table 15) was 205 pg/mL. For the same substance, the “IFN-a” value (donor 28186, Table 15) was 41 pg/mL, the “IFN-g” value (donor 28186, Table 15) was 17 pg/mL and the “IFN-a” value (donor 28187, Table 15) was 4 pg/mL. For the same substance, the “IFN-g” value (donor 28187, Table 15) was 148 pg/mL, the “IFN-a” value (donor 28188, Table 15) was 4 pg/mL and the “IFN-g” value (donor 28188, Table 15) was 8 pg/mL. For the same substance, the “IFN-a (pg/ml) 28218” value (donor 28218, 20 μg/ml, 24 h) was 32 pg/mL, the “IFN-g (pg/ml) 28218” value (donor 28218, 20 μg/ml, 24 h) was 13 pg/mL and the “IFN-a (pg/ml) 28219” value (donor 28219, 20 μg/ml, 24 h) was 32 pg/mL. For the same substance, the “IFN-g (pg/ml) 28219” value (donor 28219, 20 μg/ml, 24 h) was 7 pg/mL, the “IFN-a (pg/ml) 28220” value (donor 28220, 20 μg/ml, 24 h) was 32 pg/mL and the “IFN-g (pg/ml) 28220” value (donor 28220, 20 μg/ml, 24 h) was 25 pg/mL. The “IFN-a (pg/ml) 28221” value (donor 28221, 20 μg/ml, 24 h) was 32 pg/mL, the “IFN-g (pg/ml) 28221” value (donor 28221, 20 μg/ml, 24 h) was 141 pg/mL and the “IFN-α (pg/ml) mean” value [6] was 220 pg/mL. The “IFN-γ (pg/ml) mean” value [6] was 1425 pg/mL, the “IFN-α (pg/ml) mean” value [7] was 67 pg/mL and the “IFN-γ (pg/ml) mean” value [7] was 161 pg/mL. The “IFN-α (pg/ml) mean” value [8] was 268 pg/mL, the “IFN-γ (pg/ml) mean” value [8] was 621 pg/mL and the “IFN-α (pg/ml) mean” value [9] was 32 pg/mL. The “IFN-γ (pg/ml) mean” value [9] was 191 pg/mL, the IFN-α mean [10] was 16 and the IFN-γ mean [10] was 45. For the same substance, the “IFN-α (pg/ml) mean” value [11] was 132 pg/mL, the “IFN-γ (pg/ml) mean” value [11] was 525 pg/mL and the “IFN-α (pg/ml) mean” value [12] was 321 pg/mL. The “IFN-γ (pg/ml) mean” value [12] was 375 pg/mL, the “IFN-α (pg/ml) mean” value [13] was 50 pg/mL and the “IFN-γ (pg/ml) mean” value [13] was 346 pg/mL. For the same substance, the “IFN-a (pg/ml) mean” value [14] was 42 pg/mL, the “IFN-g (pg/ml) mean” value [14] was 94 pg/mL and the “IFN-a (pg/ml) mean” value [15] was 32 pg/mL. For the same substance, the “IFN-g (pg/ml) mean” value [15] was 47 pg/mL, the “IFN-a (pg/ml) ×2” value (mean ×2, Table 15) was 84 pg/mL and the “IFN-g (pg/ml) ×4” value (mean ×4, Table 15) was 378 pg/mL.
